# Patent US20210292330A1, “PYRROLIDINE-FUSED HETEROCYCLES” (Erasca, Inc., priority 2020, published 2021)
# Target: T1, KRAS 4B G12C protein (Homo sapiens, UniProt P01116, G12C)
# T1 construct: This protein contained 188 amino acids in total, including an N-terminal 6-Histidine tag; made in house; host or cells: E. coli BL21
# Assay: In vitro covalent adduct formation (CAF) assay by LC-MS
# Type: binding
# Conditions: compound 10 μM, protein 5 μM, 22° C., percentage of protein bound by the compound
# Method in brief: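 Recombinant His-TEV-tagged KRAS 4B G12C (residues 1-169, E. coli) at 5 μM in Tris-buffered saline pH 7.4 was incubated with 10 μM compound (4% DMSO) at 22° C. for one hour, sampling over time. Intact-mass LC-MS free:adduct ratios gave % protein bound; duplicates.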
Structure (SMILES),CAF (10 minutes/60 minutes) at 10 micromolar: 10 minutes,CAF (10 minutes/60 minutes) at 10 micromolar: 60 minutes
C=CC(=O)N1CCN(c2nc(OC[C@@H]3CCCN3C)nc3c2CN(Cc2cc(O)c(C)cc2Cl)C3)C[C@@H]1CC#N [1-323],72%,93%
C=CC(=O)N1CCN(c2nc(OC[C@@H]3CCCN3C)nc3c2CN(Cc2c(C)cc(C)c(O)c2C)C3)C[C@@H]1CC#N [1-324],31%,78%
C=C(F)C(=O)N1CCN(c2nc(OC[C@@H]3CCCN3C)nc3c2CN(Cc2c(C)cc(C)c(O)c2C)C3)C[C@@H]1CC#N [1-325],0%,3%
"C=C(F)C(=O)N1CCN(c2nc(OC[C@@H]3CCCN3C)nc3c2CN(Cc2cc(O)c(Cl)cc2C)C3)C[C@@H]1CC#N [1-326, 2-[(2S)-4-{6-[(4-chloro-5-hydroxy-2-methylphenyl)methyl]-2-{[(2S)-1-methylpyrrolidin-2-yl]methoxy}-5H,7H-pyrrolo[3,4-d]pyrimidin-4-yl}-1-(2-fluoroprop-2-enoyl)piperazin-2-yl]acetonitrile]",0%,2%
C=C(F)C(=O)N1CCN(c2nc(OC[C@@H]3CCCN3C)nc3c2CN(Cc2cc(O)c(C)cc2C)C3)C[C@@H]1CC#N [1-327],0%,3%
C=CC(=O)N1C2CC(=O)CC1CN(c1nc(OC[C@@H]3CCCN3C)nc3c1CN(Cc1cc(O)ccc1Cl)C3)C2 [1-328],14%,39%
C=C(F)C(=O)N1CCN(c2nc(OC[C@@H]3CCCN3C)nc3c2CN(Cc2cc(O)c(C)cc2Cl)C3)C[C@@H]1CC#N [1-329],2%,22%
C=CC(=O)N1CCN(c2nc(OC[C@@H]3CCCN3C)nc3c2CN(Cc2cc(O)c(Cl)cc2Cl)C3)C[C@@H]1CC#N [1-330],52%,86%
C=CC(=O)N1CCN(c2nc(OC[C@@H]3CCCN3C)nc3c2CN(Cc2cc(O)c(Cl)cc2C)C3)C[C@@H]1CC#N [1-331],32%,76%
C=C(F)C(=O)N1CCN(c2nc(OC[C@@H]3CCCN3C)nc3c2CN(Cc2cc(N)ncc2Cl)C3)C[C@@H]1CC#N [1-332],6%,48%
C=CC(=O)N1[C@H](C)CN(c2nc(OC[C@@H]3CCCN3C)nc3c2CN(Cc2c(Cl)ccc(O)c2C)C3)C[C@@H]1C [1-333],17%,59%
C=C(F)C(=O)N1CCN(c2nc(OC[C@@H]3CCCN3C)nc3c2CN(Cc2nc(N)cc(C)c2C(F)(F)F)C3)C[C@@H]1CC#N [1-334],79%,86%
C=CC(=O)N1CCN(c2nc(OC[C@@H]3CCCN3C)nc3c2CN(Cc2nc(N)cc(C)c2C(F)(F)F)C3)C[C@@H]1CC#N [1-335],92%,95%
C=CC(=O)N1CCN(c2nc(O[C@@H]3CN(C)C[C@H]3OC)nc3c2CN(Cc2cc(O)ccc2Cl)C3)C2COCC21 (stereo partly shown) [1-336],0%,9%
C=C(F)C(=O)N1CCN(c2nc(OC[C@@H]3CCCN3C)nc3c2CN(C2CCc4ccc(Cl)c(Cl)c42)C3)C[C@@H]1CC#N (stereo partly shown) [1-337],27%,74%
C=C(F)C(=O)N1CCN(c2nc(OC[C@@H]3CCCN3C)nc3c2CN(Cc2nc(N)ccc2Cl)C3)C[C@@H]1CC#N [1-339],83%,92%
C=C(F)C(=O)N1CCN(c2nc(OC[C@@H]3CCCN3C)nc3c2CN(Cc2cc(NC)ncc2Cl)C3)C[C@@H]1CC#N [1-340],0%,7%
C=CC(=O)N1[C@H](C)CN(c2nc(OC[C@@H]3CCCN3C)nc3c2CN(Cc2c(Cl)ccc(O)c2C)C3)C[C@H]1C [1-341],0%/ 0%,0%/ 0%
C=CC(=O)N1CCN(c2nc(OC[C@@H]3CCCN3C)nc3c2CN(C2CCc4ccc(O)c(Cl)c42)C3)C[C@@H]1CC#N (stereo partly shown) [1-342],80%,87%
C=C(F)C(=O)N1CCN(c2nc(OC[C@@H]3CCCN3C)nc3c2CN(Cc2c[nH]nc2C)C3)C[C@@H]1CC#N [1-343],0%/ 0%,0%/ 0%
C=C(F)C(=O)N1CCN(c2nc(OC[C@@H]3CCCN3C)nc3c2CN(Cc2n[nH]cc2C)C3)C[C@@H]1CC#N [1-344],0%,2%
C=C(F)C(=O)N1CCN(c2nc(OC[C@@H]3CCCN3C)nc3c2CN(Cc2n[nH]c4ccccc24)C3)C[C@@H]1CC#N [1-345],0%/ 0%,0%/ 0%
C=C(F)C(=O)N1CCN(c2nc(OC[C@@H]3CCCN3C)nc3c2CN(Cc2nc(NC)ccc2Cl)C3)C[C@@H]1CC#N [1-361],16%,61%
